In patent publication US20200405696A1, “INHIBITORS OF INDOLEAMINE 2,3-DIOXYGENASE AND/OR TRYPTOPHAN 2,3-DIOXYGENASE” (IDORSIA PHARMACEUTICALS LTD, priority 2018, published 2020) one finds IC50 data, which are given here for 19 compounds.

Assay [1] addresses T1, Recombinant human TDO comprising amino acids 19-407 (Homo sapiens, UniProt P48775).
T1 construct: Recombinant human TDO comprising amino acids 19-407 with a N-terminal hexahistidine tag; hexahistidine (His6) (N); made in house; host or cells: E. coli
Nature of the assay: TDO2 enzymatic assay (NFK quantified by LCMS). As to conditions: 15 nM enzyme, 200 μM L-tryptophan, pH7, 30 minutes pre-incubation at RT; mean values when measured multiple times; read-out: hTDO activity (IC50 in nM). It is filed as biochemical. As to the method: 2) Testing Compounds for TDO Inhibitory Activity in a TDO2 Enzymatic Assay:
Recombinant human TDO comprising amino acids 19-407 with a N-terminal hexahistidine tag expressed in E. coli and purified to homogeneity is incubated at a final concentration of 15 nM in assay buffer consisting of 75 mM phosphate buffer at pH7 supplemented with 100 μM ascorbic acid, 50U/ml Catalase, 0.01% BSA, and 0.01% Tween 20 (protocol modified from Seegers et al, JBS 2014). Example compounds are serially diluted in DMSO, further diluted in phosphate buffer, and added to the reaction mixture at final concentrations ranging from 10 μM to 0.5 nM. The final DMSO concentration is 0.6%. Following a pre-incubation of 30 minutes at RT, the reaction is started by the addition of L-tryptophan at a final concentration of 200 μM in assay buffer. After 30 minutes of incubation at RT, 3 μL of the reaction mixture are transferred to a 384 deep well plate containing 25 μL of deionized water. 100 μl of 200 nM L-Tryptophan-(indole-d5) in cold 100% methanol are added followed by a 10 minutes centrifugation at 3220×g at 4° C. An additional 75 μL of deionized water are then added followed by a 10 minutes centrifugation at 3220×g at 4° C. The product of the reaction N′-Formylkynurenine (NFK) is quantified by LCMS and normalized to the L-Tryptophan-(indole-d5) signal. Samples with 0.6% DMSO (0% effect) and a TDO/IDO inhibitor (100% effect) are used as control samples to set the parameters for the non-linear regression necessary for the determination of the half-maximal inhibitory concentration (IC50) for each compound. For each compound concentration the percentage of activity compared to 0% and 100% effect is calculated as average±STDEV (each concentration measured in duplicate). IC50 values and curves are generated with XLfit software (IDBS) using Dose-Response One Site model 203 (four parameter logistic curve model). The calculated IC50 values may fluctuate depending on the daily assay performance. Fluctuations of this kind are known to those skilled in the art. When compounds are measured multiple times, mean values are given.

Assay [2] addresses T2, Recombinant full-length human IDO1 (Homo sapiens, UniProt P14902).
T2 construct: Recombinant full-length human IDO1 with a N-terminal hexahistidine tag; hexahistidine (His6) (N); made in house; host or cells: E. coli
Nature of the assay: IDO1 enzymatic assay (NFK quantified by LCMS). As to conditions: 2 nM enzyme, 5 μM L-tryptophan, pH6.5, 30 minutes pre-incubation at RT; mean values when measured multiple times; read-out: hIDO activity (IC50 in nM). The assay is classed as biochemical. As to the method:
1) Testing Compounds for IDO Inhibitory Activity in an IDO1 Enzymatic Assay:
Recombinant full-length human IDO1 with a N-terminal hexahistidine tag expressed in E. coli and purified to homogeneity is incubated at a final concentration of 2 nM in assay buffer consisting of 37.5 mM phosphate buffer at pH6.5 supplemented with 10 mM ascorbic acid, 0.45 μM methylene blue, 50U/ml catalase, 0.01% BSA, and 0.01% Tween 20 (protocol modified from Seegers et al, JBS 2014). Example compounds are serially diluted in DMSO, further diluted in phosphate buffer, and added to the enzyme at final concentrations ranging from 10 μM to 0.5 nM. The final DMSO concentration is 0.6%. Following a pre-incubation of 30 minutes at RT, the reaction is started by the addition of L-tryptophan at a final concentration of 5 μM in assay buffer. After 30 minutes of incubation at RT, 3 μL of the 20 μl reaction mixture are transferred to a 384 deep well plate containing 25 μL of deionized water. 100 μl of 200 nM L-Tryptophan-(indole-d5) in cold 100% methanol are added followed by a 10 minutes centrifugation at 3220×g at 4° C. An additional 75 μL of deionized water are then added followed by a 10 minutes centrifugation at 3220×g at 4° C. The product of the reaction N′-Formylkynurenine (NFK) is quantified by LCMS and normalized to the L-Tryptophan-(indole-d5) signal. Samples with 0.6% DMSO (0% effect) and a TDO/IDO inhibitor (100% effect) are used as control samples to set the parameters for the non-linear regression necessary for the determination of the half-maximal inhibitory concentration (IC50) for each compound. For each compound concentration the percentage of activity compared to 0% and 100% effect is calculated as average±STDEV (each concentration measured in duplicate). IC50 values and curves are generated with XLfit software (IDBS) using Dose-Response One Site model 203 (four parameter logistic curve model). The calculated IC50 values may fluctuate depending on the daily assay performance. Fluctuations of this kind are known to those skilled in the art. When compounds are measured multiple times, mean values are given.

T1 sequence (P48775 19-406 limits assumed): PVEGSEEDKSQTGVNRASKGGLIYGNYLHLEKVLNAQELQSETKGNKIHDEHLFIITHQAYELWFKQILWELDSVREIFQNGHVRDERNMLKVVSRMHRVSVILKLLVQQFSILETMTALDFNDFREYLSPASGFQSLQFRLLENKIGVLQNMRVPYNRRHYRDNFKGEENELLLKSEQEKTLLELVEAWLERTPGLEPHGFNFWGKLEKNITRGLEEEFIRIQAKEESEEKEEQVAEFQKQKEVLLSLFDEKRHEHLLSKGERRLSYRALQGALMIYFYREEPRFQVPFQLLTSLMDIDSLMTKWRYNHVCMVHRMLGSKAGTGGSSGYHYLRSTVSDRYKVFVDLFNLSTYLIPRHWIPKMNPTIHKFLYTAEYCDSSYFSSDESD
T2 sequence (P14902 whole entry): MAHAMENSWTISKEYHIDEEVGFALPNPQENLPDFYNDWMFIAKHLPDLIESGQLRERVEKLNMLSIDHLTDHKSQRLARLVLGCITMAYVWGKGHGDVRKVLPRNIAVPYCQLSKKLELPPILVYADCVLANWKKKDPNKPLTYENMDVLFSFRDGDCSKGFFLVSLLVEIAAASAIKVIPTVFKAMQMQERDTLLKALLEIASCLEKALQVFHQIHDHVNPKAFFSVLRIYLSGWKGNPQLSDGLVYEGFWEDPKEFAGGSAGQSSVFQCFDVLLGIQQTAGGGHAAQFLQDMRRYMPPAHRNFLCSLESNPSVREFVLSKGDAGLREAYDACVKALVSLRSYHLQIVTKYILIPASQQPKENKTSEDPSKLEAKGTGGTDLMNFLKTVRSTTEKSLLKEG

The IC50 is the point on the concentration scale where inhibition reaches its midpoint. As for `COc1ccccc1-c1ccc(C(O)c2c(C3CC3)sc3cncn23)s1` (racemic) [Example 166, rac-(2-Cyclopropyl-imidazo[5,1-b]thiazol-3-yl)-[5-(2-methoxy-phenyl)-thiophen-2-yl]-methanol], the concentration for half-maximal inhibition (IC50) in assay [1] was more than 10200 nM; in assay [2], 587 nM.

For the compound `COc1cc(F)c(-n2cc(C(O)c3c(C4CC4)sc4cncn34)nn2)cc1Cl` (racemic) [Example 300, rac-[1-(5-Chloro-2-fluoro-4-methoxy-phenyl)-1H-[1,2,3]triazol-4-yl]-(2-cyclopropyl-imidazo[5,1-b]thiazol-3-yl)-methanol], the IC50 in assay [1] is more than 10200 nM; in assay [2], 6.66 nM.

Turning to `CCc1sc2cncn2c1C(O)c1cn(-c2ccc3c(c2)C(C)NS3(=O)=O)nn1` (centres unmarked) [Example 227, (2-Ethyl-imidazo[5,1-b]thiazol-3-yl)-[1-(3-methyl-1,1-dioxo-2,3-dihydro-1H-1I6-benzo[d]isothiazol-5-yl)-1H-[1,2,3]triazol-4-yl]-methanol], the IC50 was more than 10200 nM in assay [1] and 77.8 nM in assay [2].

For the compound `CCOc1ccc(-n2nnc(C(O)c3c(C4CC4)sc4cncn34)c2C)cc1Cl` (racemic) [Example 296, rac-[1-(3-Chloro-4-ethoxy-phenyl)-5-methyl-1H-[1,2,3]triazol-4-yl]-(2-cyclopropyl-imidazo[5,1-b]thiazol-3-yl)-methanol], the IC50 in assay [1] is more than 10200 nM; in assay [2] it was 14.1 nM.

Turning to `CCCC=Cc1sc2cncn2c1C(O)c1cn(-c2ccc(OC)cc2)nn1` (racemic) [Example 271, rac-[1-(4-Methoxy-phenyl)-1H-[1,2,3]triazol-4-yl]-[((E)-2-(pent-1-enyl))-imidazo[5,1-b]thiazol-3-yl]-methanol], the values for the IC50 in assay [1] and in assay [2] were more than 10200 nM and 225 nM, respectively.

`CCc1sc2cncn2c1C(O)c1cn(-c2ccc3[nH]c(=O)[nH]c3c2)nn1` (racemic) [Example 112, rac-5-{4-[(2-Ethyl-imidazo[5,1-b]thiazol-3-yl)-hydroxy-methyl]-[1,2,3]triazol-1-yl}-1,3-dihydro-benzoimidazol-2-one]: the figures for the IC50 in assay [1] and in assay [2] were 6220 nM and 45.6 nM, respectively.

For `O[C@@H](c1cn(-c2ccc(OCC3CCOCC3)cc2)nn1)c1c(C2CC2)sc2cncn12` [Example 87a, (R)-(2-Cyclopropyl-imidazo[5,1-b]thiazol-3-yl)-{1-[4-(tetrahydro-pyran-4-ylmethoxy)-phenyl]-1H-[1,2,3]triazol-4-yl}-methanol], the figures for the IC50 in assay [1] and in assay [2] were more than 10200 nM and 4.55 nM, respectively.

`Oc1ccc(-n2cc(C(O)c3c([C@@H]4C[C@@H]4F)sc4cncn34)nn2)cc1Cl` (relative stereo) [Example 325, 2-Chloro-4-(4-{[2-(cis-2-fluoro-cyclopropyl)-imidazo[5,1-b]thiazol-3-yl]-hydroxy-methyl}-[1,2,3]triazol-1-yl)-phenol]: the IC50 in assay [1] was more than 10200 nM; in assay [2], 8.31 nM.

Regarding `CC(C)(O)CCOc1ccc(-n2cc(C(O)c3c(-c4ccccc4)sc4cncn34)nn2)cc1Cl` (racemic) [Example 268, rac-4-(2-Chloro-4-{4-[hydroxy-(2-phenyl-imidazo[5,1-b]thiazol-3-yl)-methyl]-[1,2,3]triazol-1-yl}-phenoxy)-2-methyl-butan-2-ol], the values for the IC50 in assay [1] and in assay [2] were more than 10200 nM and 210 nM, respectively.

For the compound `CCc1sc2cncn2c1C(O)c1cn(-c2ccc(N3CCOCC3)cc2)nn1` (racemic) [Example 47, rac-(2-Ethyl-imidazo[5,1-b]thiazol-3-yl)-[1-(4-morpholin-4-yl-phenyl)-1H-[1,2,3]triazol-4-yl]-methanol], the IC50 is more than 10200 nM in assay [1] and 44.4 nM in assay [2].

As for `Oc1cccc(-n2cc(C(O)c3c(C4CC4)sc4cncn34)nn2)c1` (racemic) [Example 215, rac-3-{4-[(2-Cyclopropyl-imidazo[5,1-b]thiazol-3-yl)-hydroxy-methyl]-[1,2,3]triazol-1-yl}-phenol], the IC50 in assay [1] was more than 10200 nM; in assay [2], 27.6 nM.

Take `CCc1sc2cncn2c1C(O)c1cn(-c2ccc(NC(=O)C(C)(C)C)cc2)nn1` (racemic) [Example 120, rac-N-(4-{4-[(2-Ethyl-imidazo[5,1-b]thiazol-3-yl)-hydroxy-methyl]-[1,2,3]triazol-1-yl}-phenyl)-2,2-dimethyl-propionamide]: the values for the IC50 in assay [1] and in assay [2] were more than 10200 nM and 11 nM, respectively.

Take `CC(C)(C)OC(=O)Nc1ccc(-n2cc(C(O)c3c(C4CC4)sc4cncn34)nn2)cc1` (racemic) [Example 180, rac-(4-{4-[(2-Cyclopropyl-imidazo[5,1-b]thiazol-3-yl)-hydroxy-methyl]-[1,2,3]triazol-1-yl}-phenyl)-carbamic acid tert-butyl ester]: the IC50 in assay [1] is more than 10200 nM; in assay [2] it was 33.6 nM.

Regarding `OC(c1cn(-c2ccc(N3CCOCC3)cc2)nn1)c1c(C2CC2)sc2cncn12` (racemic) [Example 38, rac-(2-Cyclopropyl-imidazo[5,1-b]thiazol-3-yl)-[1-(4-morpholin-4-yl-phenyl)-1H-[1,2,3]triazol-4-yl]-methanol], the IC50 in assay [1] was more than 10200 nM; in assay [2] it was 72.7 nM.

For `COc1ccc(-n2cc(C(O)c3c(C=C(C)C)sc4cncn34)nn2)cc1` (racemic) [Example 262, rac-[1-(4-Methoxy-phenyl)-1H-[1,2,3]triazol-4-yl]-[2-(2-methyl-propenyl)-imidazo[5,1-b]thiazol-3-yl]-methanol], the IC50 is more than 10200 nM in assay [1] and 83.2 nM in assay [2].

For the compound `O[C@@H](c1cn(-c2ccccc2)nn1)c1c(C2CC2)sc2cncn12` [Example 2a, (R)-(2-Cyclopropyl-imidazo[5,1-b]thiazol-3-yl)-(1-phenyl-1H-[1,2,3]triazol-4-yl)-methanol], the IC50 is more than 10200 nM in assay [1] and 11.7 nM in assay [2].

On to `Cc1sc2cncn2c1C(O)c1cn(-c2ccc(C3(CO)CC3)cc2)nn1` (racemic) [Example 57, rac-{1-[4-(1-Hydroxymethyl-cyclopropyl)-phenyl]-1H-[1,2,3]triazol-4-yl}-(2-methyl-imidazo[5,1-b]thiazol-3-yl)-methanol], for which the values for the IC50 in assay [1] and in assay [2] were more than 10200 nM and 391 nM, respectively.

In the case of `CC(C)(O)COc1ccc(-n2cc(C(O)c3c(C4CC4)sc4cncn34)nn2)cc1` (racemic) [Example 139, rac-1-(4-{4-[(2-Cyclopropyl-imidazo[5,1-b]thiazol-3-yl)-hydroxy-methyl]-[1,2,3]triazol-1-yl}-phenoxy)-2-methyl-propan-2-ol], the IC50 is more than 10200 nM in assay [1] and 14.6 nM in assay [2].

Regarding `COc1ccc(-n2cc(C(O)c3c(C4(F)CC4)sc4cncn34)nn2)cc1` (racemic) [Example 92, rac-[2-(1-Fluoro-cyclopropyl)-imidazo[5,1-b]thiazol-3-yl]-[1-(4-methoxy-phenyl)-1H-[1,2,3]triazol-4-yl]-methanol], the IC50 in assay [1] is more than 10200 nM; in assay [2], 32.7 nM.
